≈ marks a conversion by molar mass, not a printed value.
How the values were obtained:
[1] = biological target: T1, Tyrosine-protein kinase SYK (Homo sapiens, UniProt P43405); test: Inhibition of purified full-length human SYK pre-incubated for 30 mins at room temperature before Ulight-TK peptide substrate addition and measured 1 hr after substrate addition by cell free kinase assay
[2] = biological target: T2, Tyrosine-protein kinase JAK3 (Homo sapiens, UniProt P52333); test: Inhibition of JAK3 (unknown origin) pre-incubated for 30 mins at room temperature before substrate addition and measured 1 hr after substrate addition by cell free kinase assay
T2 sequence (P52333 whole entry): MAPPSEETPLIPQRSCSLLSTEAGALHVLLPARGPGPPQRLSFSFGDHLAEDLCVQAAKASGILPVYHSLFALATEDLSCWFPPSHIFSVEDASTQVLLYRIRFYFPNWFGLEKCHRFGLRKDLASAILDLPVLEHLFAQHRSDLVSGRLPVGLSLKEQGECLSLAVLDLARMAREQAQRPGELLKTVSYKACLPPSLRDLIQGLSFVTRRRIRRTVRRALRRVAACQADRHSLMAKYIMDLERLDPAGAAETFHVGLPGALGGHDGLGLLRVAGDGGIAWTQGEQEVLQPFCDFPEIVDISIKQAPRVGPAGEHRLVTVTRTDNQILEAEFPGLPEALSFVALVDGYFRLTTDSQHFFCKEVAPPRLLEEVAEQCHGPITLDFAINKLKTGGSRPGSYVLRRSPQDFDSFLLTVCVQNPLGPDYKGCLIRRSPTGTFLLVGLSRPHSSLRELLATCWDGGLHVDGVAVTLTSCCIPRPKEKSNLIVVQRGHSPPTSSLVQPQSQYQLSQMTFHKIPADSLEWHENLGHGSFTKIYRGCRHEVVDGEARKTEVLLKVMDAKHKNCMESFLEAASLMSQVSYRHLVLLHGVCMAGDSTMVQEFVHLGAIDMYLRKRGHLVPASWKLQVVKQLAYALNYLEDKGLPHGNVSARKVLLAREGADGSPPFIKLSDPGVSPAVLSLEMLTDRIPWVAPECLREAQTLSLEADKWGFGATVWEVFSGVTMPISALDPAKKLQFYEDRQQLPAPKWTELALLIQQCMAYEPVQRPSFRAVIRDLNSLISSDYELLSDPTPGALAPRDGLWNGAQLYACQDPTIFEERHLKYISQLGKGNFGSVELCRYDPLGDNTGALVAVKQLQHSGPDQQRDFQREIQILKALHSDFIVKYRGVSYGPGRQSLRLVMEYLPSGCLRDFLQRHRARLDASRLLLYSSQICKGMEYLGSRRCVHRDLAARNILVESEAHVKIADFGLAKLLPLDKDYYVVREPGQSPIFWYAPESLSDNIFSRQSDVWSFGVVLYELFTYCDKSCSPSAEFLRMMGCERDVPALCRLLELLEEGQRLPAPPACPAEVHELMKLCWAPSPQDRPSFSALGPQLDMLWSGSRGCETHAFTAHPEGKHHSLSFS

[3] = Clearance in Sprague-Dawley rat at 10 mg/kg, po; type: ADME, organism-based; settings: in vivo
[4] = Oral bioavailability in Sprague-Dawley rat at 10 mg/kg; type: ADME, organism-based; settings: in vivo
Rattus norvegicus = test: Volume of distribution at steady state in Sprague-Dawley rat at 10 mg/kg, po; type: ADME, organism-based; settings: in vivo
[5] = Kinetic solubility of the compound; type: physicochemical; settings: read-out: Kinetic_solubility
[6] = biological target: T1, Tyrosine-protein kinase SYK; test: Inhibition of SYK-mediated TNFalpha production in human IgG-stimulated human THP1 cells incubated for 18 hrs by ELISA method; type: cell-based, THP-1
[7] = AUClast in Sprague-Dawley rat at 10 mg/kg; type: ADME, organism-based; set-up: dose 10 mg/kg, time 0 - last; settings: in vivo
[8] = Apparent permeability in human Caco2 cells; type: ADME, cell-based; settings: Caco-2
[9] = Terminal half life in Sprague-Dawley rat at 10 mg/kg, po; type: ADME, organism-based; settings: in vivo, read-out: beta t1/2 (converted)
Cytochrome P450 3A4 = Cytochrome P450 3A4 (Homo sapiens, UniProt P08684); test: Inhibition of CYP3A4 (unknown origin); type: ADME
[10] = Inhibition of CYP450 (unknown origin); type: ADME, Homo sapiens
[11] = Apparent permeability from basolateral to apical side in human Caco2 cells; type: ADME, cell-based; settings: Caco-2
[12] = biological target: T3, Tyrosine-protein kinase ZAP-70 (Homo sapiens, UniProt P43403); test: Inhibition of purified full-length human ZAP70 pre-incubated for 30 mins at room temperature before UlighTM-PolyGT peptide substrate addition and measured 1 hr after substrate addition by cell free kinase assay
T3 sequence (P43403 whole entry): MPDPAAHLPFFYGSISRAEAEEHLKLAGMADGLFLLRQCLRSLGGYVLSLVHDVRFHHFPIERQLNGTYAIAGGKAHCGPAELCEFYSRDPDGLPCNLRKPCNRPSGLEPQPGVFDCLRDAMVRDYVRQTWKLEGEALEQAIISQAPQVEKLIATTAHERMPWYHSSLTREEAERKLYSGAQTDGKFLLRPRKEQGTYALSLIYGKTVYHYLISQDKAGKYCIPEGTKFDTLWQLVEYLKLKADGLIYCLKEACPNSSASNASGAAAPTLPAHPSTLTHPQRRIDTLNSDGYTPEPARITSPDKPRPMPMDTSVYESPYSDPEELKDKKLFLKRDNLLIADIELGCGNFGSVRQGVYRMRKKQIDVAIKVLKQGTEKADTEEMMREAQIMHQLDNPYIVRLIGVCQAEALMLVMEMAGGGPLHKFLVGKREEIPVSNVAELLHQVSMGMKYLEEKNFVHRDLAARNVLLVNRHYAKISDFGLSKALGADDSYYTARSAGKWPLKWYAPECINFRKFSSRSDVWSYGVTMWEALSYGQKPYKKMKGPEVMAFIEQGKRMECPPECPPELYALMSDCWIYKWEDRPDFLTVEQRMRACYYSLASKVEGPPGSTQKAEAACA

Plasma = test: Unbound fraction in human plasma; type: ADME, cell-free
[13] = Stability in human liver microsomes; type: ADME; settings: read-out: Stability
[14] = Apparent permeability from apical to basolateral side in human Caco2 cells; type: ADME, cell-based; settings: Caco-2
[15] = biological target: Proto-oncogene tyrosine-protein kinase receptor Ret (Homo sapiens, UniProt P07949); test: Inhibition of human RET pre-incubated for 30 mins at room temperature before substrate addition and measured 1 hr after substrate addition by cell free kinase assay
Chain of Proto-oncogene tyrosine-protein kinase receptor Ret (P07949 whole entry): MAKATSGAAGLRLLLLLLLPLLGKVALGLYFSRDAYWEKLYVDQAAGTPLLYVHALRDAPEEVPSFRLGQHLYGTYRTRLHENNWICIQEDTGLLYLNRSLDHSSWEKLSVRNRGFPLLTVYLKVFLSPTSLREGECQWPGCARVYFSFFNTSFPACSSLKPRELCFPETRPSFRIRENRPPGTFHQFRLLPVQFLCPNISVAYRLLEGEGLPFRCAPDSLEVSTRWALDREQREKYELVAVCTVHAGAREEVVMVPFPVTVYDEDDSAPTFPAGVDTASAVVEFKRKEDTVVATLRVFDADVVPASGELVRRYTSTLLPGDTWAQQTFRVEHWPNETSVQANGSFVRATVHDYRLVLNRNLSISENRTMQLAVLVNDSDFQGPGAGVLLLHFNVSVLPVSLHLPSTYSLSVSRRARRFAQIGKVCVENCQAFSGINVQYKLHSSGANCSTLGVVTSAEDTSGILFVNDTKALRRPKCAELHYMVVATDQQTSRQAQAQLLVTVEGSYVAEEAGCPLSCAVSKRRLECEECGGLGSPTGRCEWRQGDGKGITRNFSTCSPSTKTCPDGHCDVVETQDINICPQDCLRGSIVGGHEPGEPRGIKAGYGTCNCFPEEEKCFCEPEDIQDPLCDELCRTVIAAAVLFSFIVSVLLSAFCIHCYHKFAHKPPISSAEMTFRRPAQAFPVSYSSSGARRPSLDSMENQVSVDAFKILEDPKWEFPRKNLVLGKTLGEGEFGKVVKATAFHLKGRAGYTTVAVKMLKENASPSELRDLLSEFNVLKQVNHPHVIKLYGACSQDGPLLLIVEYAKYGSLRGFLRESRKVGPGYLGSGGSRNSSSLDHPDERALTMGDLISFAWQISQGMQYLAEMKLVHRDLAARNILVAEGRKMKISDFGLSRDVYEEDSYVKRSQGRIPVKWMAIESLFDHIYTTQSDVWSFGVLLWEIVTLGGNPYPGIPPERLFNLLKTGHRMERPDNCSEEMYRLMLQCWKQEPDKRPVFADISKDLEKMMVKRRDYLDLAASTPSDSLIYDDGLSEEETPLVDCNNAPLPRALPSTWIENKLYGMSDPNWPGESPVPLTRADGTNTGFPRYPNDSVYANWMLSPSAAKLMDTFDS

Chain of Cytochrome P450 3A4 (P08684 whole entry): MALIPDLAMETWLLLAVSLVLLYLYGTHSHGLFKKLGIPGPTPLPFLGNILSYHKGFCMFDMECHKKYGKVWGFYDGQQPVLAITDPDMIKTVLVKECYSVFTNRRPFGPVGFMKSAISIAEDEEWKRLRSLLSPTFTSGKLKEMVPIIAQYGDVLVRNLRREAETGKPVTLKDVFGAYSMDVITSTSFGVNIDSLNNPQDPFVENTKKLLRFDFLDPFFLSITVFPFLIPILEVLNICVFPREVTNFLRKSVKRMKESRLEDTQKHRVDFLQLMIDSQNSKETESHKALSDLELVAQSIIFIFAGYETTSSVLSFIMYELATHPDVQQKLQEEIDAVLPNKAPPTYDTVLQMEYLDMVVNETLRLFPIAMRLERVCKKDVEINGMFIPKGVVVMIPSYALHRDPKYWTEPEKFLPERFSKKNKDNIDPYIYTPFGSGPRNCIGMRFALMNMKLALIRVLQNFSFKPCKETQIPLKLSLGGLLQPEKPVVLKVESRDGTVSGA

Row | SMILES | IC50 [1] | other results
1 | Cc1cc(C)cc(Nc2nccc(-n3cc(C)c(CN4CCC(F)(F)CC4)c3)n2)c1 | 307 nM | 
2 | Cc1nn(-c2ccnc(Nc3ccc4c(c3)CCN4C)n2)cc1CN1CC(O)C1 | 20.4 nM | 
3 | COc1cc(Nc2nccc(-n3cc(C)c(CN(C)C)c3)n2)cc(OC)c1OC | 71.8 nM | 
4 | COc1cc(Nc2nccc(-n3cc(C)c(CN4CC(O)C4)c3)n2)cc(OC)c1OCC(=O)N1CCCC1 | 61.4 nM | 
5 | Cc1cc(C)cc(Nc2nccc(-n3cc(C)c(CN4CC[C@H](C(=O)O)C4)c3)n2)c1 | 17.8 nM | 
6 | Cc1cn(-c2ccnc(Nc3cc(C)c(OCC(=O)N4CCCC4)c(C)c3)n2)cc1CN1CC[C@@H](O)C1 | 14.4 nM | 
7 | Cc1nn(-c2nc(Nc3ccc4c(c3)c(C#N)nn4C)ncc2F)cc1CN1CC(O)C1 | 5990 nM | 
8 | Cc1nn(-c2ccnc(Nc3ccc4c(c3)c(Cl)c(C)n4C)n2)cc1CN1CC[C@@H](O)C1 |  | IC50 [2]: 478 nM; IC50 [10]: > 10000 nM; Papp B→A [11]: 7.3 ×10⁻⁶ cm/s; IC50 [12]: 73400 nM; Fu (Plasma): < 0.4%; half-life [13]: > 1 h; Papp A→B [14]: 6.2 ×10⁻⁶ cm/s; IC50 [15]: 9590 nM
9 | Cc1cn(-c2ccnc(Nc3cc(C)c(Oc4ccccc4)c(C)c3)n2)cc1CN1CC[C@@H](O)C1 | 377 nM | 
10 | COc1cc(Nc2nccc(-n3cc(C)c(CN4CC[C@@H](O)C4)c3)n2)cc(OC)c1OCC(=O)N1CCCC1 | 101 nM | 
11 | COc1cc(Nc2nccc(-n3cc(C)c(CN4CC(O)C4)c3)n2)cc(OC)c1OC | 38 nM | 
12 | Cc1nn(-c2nc(Nc3ccc4c(cnn4C)c3)ncc2F)cc1CN1CC(O)C1 | 326 nM | 
13 | Cc1nn(-c2ccnc(Nc3ccccc3)n2)cc1CN1CC[C@@H](O)C1 | 871 nM | 
14 | Cc1cn(-c2ccnc(Nc3cc(C)c(OCCO)c(C)c3)n2)cc1CN1CC[C@@H](O)C1 | 17.3 nM | solubility kinetic [5]: 120 µM (≈ 52.5 µg/mL); Papp [8]: 10.3 ×10⁻⁶ cm/s; IC50 (Cytochrome P450 3A4): > 10000 nM
15 | Cc1cc(C)cc(Nc2nccc(-n3cc(CN4CCC(O)CC4)c(C)n3)n2)c1 | 39.1 nM | 
16 | Cc1nn(-c2ccnc(Nc3ccc4c(ccn4C)c3)n2)cc1CN1CC(O)C1 | 36.6 nM | 
17 | CCn1ccc2cc(Nc3nccc(-n4cc(CN5CC(O)C5)c(C)n4)n3)ccc21 | 22.8 nM | 
18 | Cc1cn(-c2ccnc(Nc3cc(C)c(Oc4ccccc4)c(C)c3)n2)cc1CN1CC(O)C1 | 144 nM | 

Second part, led by results:

Row | IC50 [1] | SMILES | other results
19 | 5.4 nM | Cc1cc(C)cc(Nc2nccc(-n3cc(C)c(CN4CC(O)C4)c3)n2)c1 | 
20 | 6.2 nM | Cc1cc(C)cc(Nc2nccc(-n3cc(C)c(CN(C)C)c3)n2)c1 | 
21 | 1.9 nM | Cc1cc(C)cc(Nc2nccc(-n3cc(CN4CC(O)C4)c(C4CC4)c3)n2)c1 | 
22 | 9.2 nM | CCn1ccc2cc(Nc3nccc(-n4cc(CN5CC(O)C5)c(C5CC5)n4)n3)ccc21 | 
23 | 8.9 nM | Cc1cc(Nc2nccc(-n3cc(CN4CC(O)C4)c(C)n3)n2)cc(C)c1OCCN1CCCC1 | 
24 | 5 nM | Cc1cn(-c2ccnc(Nc3cc(C)c(OCCO)c(C)c3)n2)cc1CN1CC(O)C1 | 
25 | 2.3 nM | Cc1cc(C)cc(Nc2nccc(-n3cc(C)c(CN4CC[C@@H](O)C4)c3)n2)c1 | IC50 [2]: 349 nM; CL/F [3]: 43 mL/min/kg; bioavailability [4]: 7.6%; Vdss (Rattus norvegicus): 4.3 L/kg; solubility kinetic [5]: 70 µM (≈ 26.4 µg/mL); IC50 [6]: 77 nM; AUC(0-t) [7]: 6240 ng·h/mL; Papp [8]: 2 ×10⁻⁶ cm/s; half-life [9]: 2.6 h; IC50 (Cytochrome P450 3A4): 5100 nM
26 | 7.3 nM | Cc1cn(-c2ccnc(Nc3cc(C)c(OCC(=O)N4CCCC4)c(C)c3)n2)cc1CN1CC(O)C1 | 
27 | 3.7 nM | Cc1cc(C)cc(Nc2nccc(-n3cc(CN4CC[C@@H](O)C4)c(C4CC4)c3)n2)c1 | 
28 | 6.3 nM | Cc1cn(-c2ccnc(Nc3cc(C)c(OS(C)(=O)=O)c(C)c3)n2)cc1CN1CC(O)C1 | 
29 | 7.3 nM | Cc1cc(C)cc(Nc2nccc(-n3cc(CN4CC(O)C4)c(C)n3)n2)c1 | 
30 | 13.2 nM | Cc1cc(C)cc(Nc2nccc(-n3cc(C)c(CN4CC[C@@H](N)C4)c3)n2)c1 | 
31 | 11.5 nM | Cc1cn(-c2ccnc(Nc3cc(C)c(OCCN4CCCC4)c(C)c3)n2)cc1CN1CC(O)C1 | 
32 | 3.5 nM | Cc1cc(C)cc(Nc2nccc(-n3cc(CN4CC[C@@H](O)C4)c(C)n3)n2)c1 | 
33 | 8 nM | Cc1nn(-c2ccnc(Nc3ccc4c(cnn4C4CC4)c3)n2)cc1CN1CC(O)C1 | 
34 | 5.7 nM | COc1c(C)cc(Nc2nccc(-n3cc(C)c(CN4CC(O)C4)c3)n2)cc1C | CL/F [3]: 70 mL/min/kg; bioavailability [4]: 7.8%; Vdss (Rattus norvegicus): 5.6 L/kg; AUC(0-t) [7]: 550 ng·h/mL; half-life [9]: 1.2 h
35 | 7.9 nM | Cc1cn(-c2ccnc(Nc3cc(C)c(OS(C)(=O)=O)c(C)c3)n2)cc1CN1CC[C@@H](O)C1 | 

Source: ChEMBL document CHEMBL3621069 (Bioorg Med Chem Lett, 2015)
